ChEMBL document CHEMBL4190182 (Medchemcomm, 2016)

Experiments:
[1] = molecular target: T1, Kappa-type opioid receptor (Cavia porcellus, UniProt P41144); assay: Displacement of [3H]U-69,593 from kappa opioid receptor in guinea pig brain membranes by scintillation counting analysis; assay type: cell membranes, Membrane
[2] = molecular target: T1, Kappa-type opioid receptor; assay: Displacement of [3H]U-69,593 from kappa opioid receptor in guinea pig brain membranes after 120 mins by scintillation counting analysis; assay type: cell membranes, Membrane
[3] = molecular target: Delta-type opioid receptor (Rattus norvegicus, UniProt P33533); assay: Displacement of [3H]DPDPE from delta opioid receptor in Sprague-Dawley rat brain membranes after 120 mins by scintillation counting analysis; assay type: cell membranes, Membrane
[4] = molecular target: T2, Sigma intracellular receptor 2 (Rattus norvegicus, UniProt Q5U3Y7); assay: Displacement of [3H]DTG from sigma2 receptor in Sprague-Dawley rat liver membranes after 120 mins by scintillation counting analysis; assay type: cell membranes, Membrane
T2 sequence (Q5U3Y7 whole entry): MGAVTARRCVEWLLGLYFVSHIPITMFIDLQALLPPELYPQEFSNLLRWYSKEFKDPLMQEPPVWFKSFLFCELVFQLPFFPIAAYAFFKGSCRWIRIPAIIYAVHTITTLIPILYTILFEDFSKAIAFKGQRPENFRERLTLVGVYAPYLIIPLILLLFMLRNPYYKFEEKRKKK

[5] = molecular target: Sigma non-opioid intracellular receptor 1 (Cavia porcellus, UniProt Q60492); assay: Displacement of [3H]-(+)-Pentazocine from sigma1 receptor in guinea pig brain cortex membranes after 120 mins by scintillation counting analysis; assay type: cell membranes
[6] = molecular target: Mu-type opioid receptor (Cavia porcellus, UniProt P97266); assay: Displacement of [3H]DAMGO from mu opioid receptor in guinea pig brain membranes after 120 mins by scintillation counting analysis; assay type: cell membranes, Membrane
[7] = molecular target: Kappa-type opioid receptor (Homo sapiens) (UniProt P41145); assay: Agonist activity at kappa opioid receptor in HEK293 cells at 1 uM after 30 mins by [35S]-GTPgammaS binding assay relative to control; assay type: functional, cell-based
Chain of Kappa-type opioid receptor (Homo sapiens) (P41145 whole entry): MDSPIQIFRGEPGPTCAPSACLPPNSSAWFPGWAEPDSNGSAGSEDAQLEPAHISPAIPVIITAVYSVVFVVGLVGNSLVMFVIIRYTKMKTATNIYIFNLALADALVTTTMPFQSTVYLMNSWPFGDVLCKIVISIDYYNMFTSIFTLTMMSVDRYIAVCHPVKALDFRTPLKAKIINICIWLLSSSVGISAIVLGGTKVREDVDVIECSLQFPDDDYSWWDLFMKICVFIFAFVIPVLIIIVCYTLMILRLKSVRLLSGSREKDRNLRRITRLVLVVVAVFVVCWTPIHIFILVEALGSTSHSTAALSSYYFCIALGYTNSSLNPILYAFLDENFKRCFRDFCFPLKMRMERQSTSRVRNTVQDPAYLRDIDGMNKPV

T1 sequence (P41144 whole entry): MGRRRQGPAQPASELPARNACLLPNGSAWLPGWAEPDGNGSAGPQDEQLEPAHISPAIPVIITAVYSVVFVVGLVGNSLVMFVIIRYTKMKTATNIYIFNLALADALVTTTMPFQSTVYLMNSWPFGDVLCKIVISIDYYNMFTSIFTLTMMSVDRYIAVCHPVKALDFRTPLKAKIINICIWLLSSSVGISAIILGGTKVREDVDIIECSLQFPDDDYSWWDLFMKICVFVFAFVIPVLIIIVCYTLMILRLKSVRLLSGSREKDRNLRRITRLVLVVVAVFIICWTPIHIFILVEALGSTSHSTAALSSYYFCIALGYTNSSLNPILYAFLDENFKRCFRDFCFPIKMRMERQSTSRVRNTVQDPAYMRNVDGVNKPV
Chain of Sigma non-opioid intracellular receptor 1 (Q60492 whole entry): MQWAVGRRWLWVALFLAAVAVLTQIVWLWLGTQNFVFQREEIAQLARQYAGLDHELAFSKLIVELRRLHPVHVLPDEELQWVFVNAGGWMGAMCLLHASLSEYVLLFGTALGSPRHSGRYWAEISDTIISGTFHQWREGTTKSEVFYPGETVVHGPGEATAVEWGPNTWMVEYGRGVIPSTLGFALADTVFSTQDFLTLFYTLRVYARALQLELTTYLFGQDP
Chain of Mu-type opioid receptor (P97266 whole entry): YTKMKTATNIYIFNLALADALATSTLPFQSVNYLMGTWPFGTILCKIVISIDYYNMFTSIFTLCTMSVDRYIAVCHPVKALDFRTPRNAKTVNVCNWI
Chain of Delta-type opioid receptor (P33533 whole entry): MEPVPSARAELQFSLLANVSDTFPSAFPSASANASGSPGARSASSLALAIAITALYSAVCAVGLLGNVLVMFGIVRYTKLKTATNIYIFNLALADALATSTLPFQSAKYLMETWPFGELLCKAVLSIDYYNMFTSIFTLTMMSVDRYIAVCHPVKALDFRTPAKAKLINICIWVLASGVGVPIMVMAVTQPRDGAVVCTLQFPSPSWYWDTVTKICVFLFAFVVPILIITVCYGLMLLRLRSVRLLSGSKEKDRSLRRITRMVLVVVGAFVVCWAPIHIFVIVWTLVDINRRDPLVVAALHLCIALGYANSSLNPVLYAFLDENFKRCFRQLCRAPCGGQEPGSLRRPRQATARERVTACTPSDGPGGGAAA

| SMILES | Ki [1] [µM] | Ki [2] [µM] | Ki [3] [µM] | Ki [4] [µM] | Ki [5] [µM] | Ki [6] [µM] | Activity [7] [%] |
| --- | --- | --- | --- | --- | --- | --- | --- |
| COC(=O)N1CCC(NC(=O)Cc2ccc(Cl)c(Cl)c2)C([C@@H](C)N2CCCC2)C1 (stereo partly drawn) | 0.00031 | – | – | – | – | – | – |
| CCN1CC2OCCN(C(=O)Cc3ccc(Cl)c(Cl)c3)C2C(N2CCCC2)C1 (racemic) | – | 1.3 | > 1 | 0.102 | 0.391 | > 1 | – |
| O=C(Cc1ccc(Cl)c(Cl)c1)N1CC2OCCN(C(=O)Cc3ccc(Cl)c(Cl)c3)C2C(N2CCCC2)C1 (racemic) | – | – | – | > 1 | – | – | – |
| O=C(Cc1ccc(Cl)c(Cl)c1)N1CCOC2CN(Cc3ccccc3)CC(N3CCCC3)C21 (racemic) | – | 0.912 | 0.26 | > 1 | 0.983 | 0.261 | – |
| O=C(Cc1ccc(Cl)c(Cl)c1)N1CCOC2CN(Cc3cccnc3)CC(N3CCCC3)C21 (racemic) | – | > 1 | 0.666 | > 1 | 0.291 | 0.633 | – |
| O=C(Cc1ccc(Cl)c(Cl)c1)N1CCOC2CNCC(N3CCCC3)C21 (racemic) | – | 0.132 | > 1 | > 1 | > 1 | > 1 | 27 |
| CN1CC2OCCN(C(=O)Cc3ccc(Cl)c(Cl)c3)C2C(N2CCCC2)C1 (racemic) | – | 0.286 | > 1 | > 1 | > 1 | > 1 | – |
| O=C1COC2CN(C(=O)Cc3ccc(Cl)c(Cl)c3)CC(N3CCCC3)C2N1 (racemic) | – | > 1 | > 1 | > 1 | > 1 | > 1 | – |
| CCCCN1CC2OCCN(C(=O)Cc3ccc(Cl)c(Cl)c3)C2C(N2CCCC2)C1 (racemic) | – | > 1 | > 1 | 0.316 | 0.192 | 0.502 | – |
| O=C(Cc1ccc(Cl)c(Cl)c1)N1CCOC2CN(C3CCCC3)CC(N3CCCC3)C21 (racemic) | – | > 1 | 0.717 | 0.045 | 0.181 | 0.447 | – |
